System: anti-CD28 scFv (SEQ ID NO: 9)
Test: Octet bio-layer interferometry kinetic binding of anti-CD28 scFv to peptides
Design: species or system human
Details: Octet RED96; biotinylated peptide loaded on streptavidin biosensor; anti-CD28 scFv in solution; 1:1 binding model
Description: (§1) Association and dissociation signals were recorded in real time and analyzed using a 1:1 binding model within the instrument software. Analysis using a 1:1 binding model enabled the calculation of the on and off rate constants as well as affinity, KD.
as §1

Molecule	kdis
CSCC[C@H](N)C(=O)N[C@@H](CC(=O)O)C(=O)N[C@@H](Cc1c[nH]c2ccccc12)C(=O)N[C@H]1CSSC[C@@H](C(=O)N[C@@H](Cc2ccccc2)C(=O)N[C@@H](CO)C(=O)O)NC(=O)[C@H](CC(C)C)NC(=O)[C@H](Cc2c[nH]cn2)NC(=O)[C@H](Cc2c[nH]c3ccccc23)NC(=O)[C@H](CC(C)C)NC(=O)[C@H](CC(=O)O)NC(=O)[C@H](CCCNC(=N)N)NC(=O)[C@@H]2CCCN2C1=O [Peptide-39]	0.00265 s⁻¹
CC[C@H](C)[C@@H]1NC(=O)[C@@H]2CCCN2C(=O)[C@@H](NC(=O)[C@H](Cc2c[nH]c3ccccc23)NC(=O)[C@H](CC(=O)O)NC(=O)[C@@H](N)CCSC)CSSC[C@@H](C(=O)N[C@@H](Cc2ccccc2)C(=O)N[C@@H](CC(N)=O)C(=O)O)NC(=O)[C@H](C(C)C)NC(=O)[C@H](Cc2c[nH]cn2)NC(=O)[C@H](Cc2c[nH]c3ccccc23)NC(=O)[C@H](CC(C)C)NC(=O)[C@H](Cc2c[nH]cn2)NC1=O [Peptide-32]	0.00295 s⁻¹

System: anti-CD28 scFv
Test: Phage binding ELISA (panning) of clonal phage on anti-CD28 scFv, with or without CD28 soluble protein
Details: Phage binding ELISA; captured anti-CD28 scFv pre-incubated with CD28 soluble protein
Outline: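 Wells pre-incubated with blocking buffer plus CD28 soluble protein or blocking buffer alone, then crude clonal phage supernatants added without washing for a short incubation. After washing, bound phage detected with HRP-conjugated anti-M13 antibody.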

Molecule	CD28 scFv signal in presence of CD28
Phage-115 (MDWCPRYLWHECFN)	0.421
Phage-96 (MDWCPRTLWAYCFN)	0.584
Phage-99 (MDWCPRYLWNMCFH)	0.404

Same assay, conditions: Phage binding ELISA; captured biotinylated anti-CD28 scFv, blocking buffer alone

Molecule	CD28 scFv signal
Phage-115 (MDWCPRYLWHECFN)	2.490
Phage-96 (MDWCPRTLWAYCFN)	2.571
Phage-99 (MDWCPRYLWNMCFH)	2.564

Same assay, conditions: Phage binding ELISA; clonal phage supernatant, background wells

Molecule	Backgroud signal
Phage-126 (MDWCPRFLWNECFN)	0.072
Phage-115 (MDWCPRYLWHECFN)	0.105
Phage-123 (MDWCPIHLWNECFA)	0.104
Phage-124 (MDWCPRPLWDMCFF)	0.063
Phage-156 (MDWCPKHLWHQCFH)	0.058
Phage-155 (MHWCPLHLWNECYH)	0.063
Phage-122 (MDWCPRDLWDQCYA)	0.059
Phage-129 (MDWCPSYLWTVCFA)	0.062
Phage-119 (MDWCPRYLWHMCYS)	0.129
Phage-96 (MDWCPRTLWAYCFN)	0.070
Phage-88 (MDWCPIHLWHYCFN)	0.078
Phage-99 (MDWCPRYLWNMCFH)	0.114
Phage-152 (MDWCPKYLWDKCFH)	0.073

Same assay, conditions: clonal phage supernatant on captured anti-CD28 scFv pre-incubated with CD28 soluble protein

Molecule	Phage binding ELISA CD28 scFv signal in presence of CD28
Phage-68 (MDWCPMYMWYECFA)	0.358
Phage-78 (MDWCPRHLWHECFN)	0.704

Same assay, conditions: clonal phage supernatant on captured biotinylated anti-CD28 scFv; blocking buffer alone

Molecule	Phage binding ELISA CD28 scFv signal
Phage-68 (MDWCPMYMWYECFA)	2.479
Phage-78 (MDWCPRHLWHECFN)	2.654

Same assay, conditions: clonal phage supernatant; background (no anti-CD28 scFv signal)

Molecule	Phage binding ELISA Backgroud signal
Phage-418 (MYWCPKYMWSECFA)	0.072
Phage-409 (LHWCPITMWTYCYY)	0.229
Phage-398 (MDWCPRNMWNECFF)	0.095
Phage-452 (MDWCPRDWWHMCFN)	0.100
Phage-432 (IDWCPIIQGLPCFA)	0.058
Phage-391 (MDWCPFDMWADCFF)	0.063
Phage-406 (MNWCPIDMWTECFN)	0.245
Phage-387 (MDWCPRHLWLECFN)	0.064
Phage-384 (IMWCPTSLWNRCVT)	0.104
Phage-426 (MFLCPSAMWNRCFY)	0.069
Phage-448 (MAWCPWASFDECLA)	0.104
Phage-434 (IVWCPTTQWNRCAT)	0.113
Phage-425 (MDLCPTAMWNRCFY)	0.063
Phage-439 (MDWCPRDRWDVCFA)	0.073
Phage-423 (INLCPTPMWNRCWL)	0.119
Phage-414 (LYWCPRDMWAYCYS)	0.068
Phage-388 (MDWCPRFMWNFCFF)	2.200
Phage-382 (ITWCPTSLWNRCLV)	0.077

Same assay, conditions: clonal phage supernatant; background signal

Molecule	Phage binding ELISA Backgroud signal
Phage-353 (IDWCPLHLWHECYH)	0.067
Phage-310 (MDWCPRDLWDECFN)	0.066
Phage-242 (MDWCPKHLWTECFA)	0.098
Phage-80 (MDWCPMYLWNECFS)	0.071
Phage-331 (MDWCPRHLWDECFY)	0.098
Phage-68 (MDWCPMYMWYECFA)	0.080
Phage-203 (MSWCPRDMWFYCYA)	0.065
Phage-184 (MHWCPINLWNECFS)	0.081
Phage-75 (MDWCPRSHWHVCYN)	0.072
Phage-302 (MDWCPRYLWHVCFD)	0.068
Phage-163 (MFWCPRYLWHECFN)	0.086
Phage-270 (MDWCPRDFWAFCFF)	0.118
Phage-226 (MDWCPRDRWIDCFN)	0.218
Phage-269 (DSFCTWSAWQECGR)	0.072
Phage-176 (MDWCPSDLWHECFH)	0.075
Phage-216 (MDWCPMNMWYQCFN)	0.110
Phage-376 (MDWCPRHLWTYCFH)	0.109
Phage-305 (MDWCPRDLWTECFS)	0.080
Phage-266 (VTSCPTTMWNRCFS)	0.396
Phage-259 (MDWCPRNLWHACFN)	0.071
Phage-453 (MDWCPSDYWYVCFA)	0.065
Phage-170 (MNWCPSDLWHLCFN)	0.071

Molecule	Phage binding ELISA Backgroud signal
Phage-309 (MDWCPMFLWHECFN)	0.170
Phage-274 (WVSCLRHHWLECFH)	0.781
Phage-204 (MDWCPRHMWNVCFS)	0.067
Phage-234 (MDWCPRALWFECFF)	0.111
Phage-215 (MDWCPRYMWNECFN)	0.064
Phage-244 (MDWCPRYLWHECFD)	0.071
Phage-267 (MTLCLSVDLVHCWY)	0.114
Phage-327 (MHWCPRDLWHVCFN)	0.071
Phage-182 (MHWCPRSLWNECYF)	0.168
Phage-272 (MVWCMSVGWAVCLN)	0.289
Phage-342 (MDWCPRNLWHECFA)	0.067
Phage-169 (MDWCPRDLWNVCFN)	0.100
Phage-245 (MDWCPRNLWHLCFA)	0.082
Phage-178 (LDWCPRDLWHVCFF)	0.176
Phage-321 (MDWCPRDLWYVCFA)	0.095
Phage-352 (MDWCPIHLWYECFN)	0.080
Phage-183 (IDWCPRDLWALCFN)	0.127
Phage-78 (MDWCPRHLWHECFN)	0.070
Phage-339 (MDWCPRTLWDQCFF)	0.088
Phage-193 (MDWCPMDMWVNCFN)	0.059
Phage-362 (MDWCPRILWHECFS)	0.064

Reference: US20230357447A1, “TUMOR ACTIVATED MULTISPECIFIC ANTIBODIES FOR TARGETING CD28 AND PD-L1 AND METHODS OF USE THEREOF” (Janux Therapeutics, Inc., priority 2022, published 2023)
